Assay results taken from PubChem BioAssay (NCI).
Several values for one entry are separate records, joined by “and”; a condition that tells them apart may be missing. Equal entries are not always repeated.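 Exposure lasted 48 hours, with cells grown in 96-well plates and compounds tested at five concentrations. Abbreviation: GI50, concentration required for 50% inhibition of growth. TGI: total growth inhibition.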

Assays:
Assay in all cases: growth of human tumour cells (NCI), 48 h
[1] = system: NCI-H460 lung
[2] = system: OVCAR-5 ovarian
[3] = system: PC-3 prostate
[4] = system: SF-295 CNS
[5] = system: KM12 colon
[6] = system: NCI/ADR-RES ovarian
[7] = system: HCC-2998 colon
[8] = system: SW-620 colon
[9] = system: NCI-H226 lung
[10] = system: A498 renal

| Compound | TGI [1] [µM] | TGI [2] [µM] | TGI [3] [µM] | TGI [4] [µM] | TGI [5] [µM] | TGI [6] [µM] | TGI [7] [µM] | TGI [8] | TGI [9] [µM] | TGI [10] [µM] | GI50 [1] | GI50 [2] | GI50 [3] [µM] | GI50 [9] [µM] | GI50 [4] | GI50 [5] [µM] | GI50 [6] | GI50 [7] | GI50 [8] | GI50 [10] [µM] |
| --- | --- | --- | --- | --- | --- | --- | --- | --- | --- | --- | --- | --- | --- | --- | --- | --- | --- | --- | --- | --- |
| COC(=O)c1c[nH]c(=O)[nH]c1=O | > 100 | > 100 | > 100 | > 100 | > 100 | > 100 | > 100 | > 100 µM | – | – | – | – | – | – | – | – | – | – | – | – |
| COc1ccc(C2OC(=O)c3c2ccc2ccccc32)c(C)c1 (stereo not drawn) | > 100 | > 100 | 97.1 | – | > 100 | – | 3.34 | > 100 µM | 67.6 | 21.2 | – | – | – | – | – | – | – | – | – | – |
| CCN1CCN(c2nc(NNC(=O)Cc3ccccc3)nc(N3CCN(C(c4ccccc4)c4ccccc4)CC3)n2)CC1 | 3.63 | 5.63 | 8.61 | 3.99 | 4.35 | 14 | 3.39 | 3.69 µM | 42.7 | 20.9 | 1.89 µM | 2.24 µM | 2.51 | 16.9 | 2.01 µM | 2.07 | 3.37 µM | 1.71 µM | 1.87 µM | 7.3 |
| Cl.[Pt].[c-]1ccccc1-c1ccccn1.c1ccc(P(c2ccccc2)C([PH+](c2ccccc2)c2ccccc2)[PH+](c2ccccc2)c2ccccc2)cc1 | 10 | 23.9 | 15.3 | 12.4 | 7.22 | 76.5 | 18.6 | 8.31 µM | 9.81 | 5.89 | 2.29 µM | 2.9 µM | 0.683 | 1.88 | 2.48 µM | 2.48 | 5.21 µM | 3.64 µM | 2.32 µM | 1.85 |
| C(=N\Nc1nnc2c(n1)[nH]c1ccccc12)/c1cccnc1 | > 100 | > 100 | > 100 | > 100 | > 100 | > 100 | > 100 | > 100 µM | > 100 | > 100 | – | – | – | – | – | – | – | – | – | – |
| CC(CN=C(CC(=O)c1ccc(Br)cc1)c1ccccc1)N=C(CC(=O)c1ccc(Br)cc1)c1ccccc1 (stereo not drawn) | > 100 | > 100 | > 100 | > 100 | > 100 | > 100 | > 100 | > 100 µM | > 100 | > 100 | 5.38 µM | > 100 µM | 29.4 | 67.3 | 29.2 µM | 32.3 | 14.2 µM | 99.1 µM | > 100 µM | 38.8 |
| Cc1c[nH]c2c1C13CC1CN(C(=O)c1cc4cc(NC(=O)c5cc6ccccc6o5)ccc4[nH]1)C3=CC2=O (stereo not drawn) | < 0.001 | < 0.001 | – | < 0.001 | < 0.001 | – | < 0.001 | 1.07 nM and 0.00324 µg/mL | < 0.001 | – | > 1.17 ng/mL | > 1.17 ng/mL | – | – | > 1.17 ng/mL | – | > 1.17 ng/mL | > 1.17 ng/mL | > 1.17 ng/mL | – |
| COc1ccc(C(=O)c2cc(OC)c(OC)c(OC)c2)cc1OC(C)=O | > 100 | > 100 | > 100 | > 100 | > 100 | > 100 | > 100 | > 100 µM | > 100 | 6.43 | 0.0379 µM | 4.55 µM | 0.0208 | 8.71 | 0.0796 µM | < 0.0133 | < 0.0153 µM | 0.04 µM | < 0.0184 µM | 1.61 |
| O=C(/C=C/c1ccc(C(F)(F)F)cc1)c1ccc(Nc2nc(NCCO)nc(NCCO)n2)cc1 | 10.6 | 14.1 | 13.1 | 13 | 4.17 | 35 | 11.2 | 4.25 µM | 9.65 | 21.2 | 3.23 µM | 2.85 µM | 3.29 | 2.62 | 3.2 µM | 2.02 | 15.2 µM | 3.25 µM | 1.97 µM | 8.85 |
| COc1ccc(-c2oc(=O)ccc2C#Cc2cc(OC)c(OC)c(OC)c2)cc1O | 62.9 | > 100 | > 100 | 75.4 | > 100 | > 100 | – | > 100 µM | > 100 | 76.8 | 15.7 µM | > 100 µM | 23.3 | 50.5 | 12.8 µM | 50 | 24.4 µM | – | 31.1 µM | 30 |
| Cn1nc(C(F)(F)F)c(-c2ccc(Cl)c(C(F)(F)F)c2)c1-c1ccc(OCc2ccc(Cl)cc2)cc1O | 5.64 | 8.26 | 6.68 | 5.59 | 5.91 | 4.99 | 6.73 | 7.28 µM | 6.84 | 4.1 | 1.71 µM | 1.83 µM | 1.66 | 1.73 | 1.64 µM | 1.6 | 1.56 µM | 1.88 µM | 1.84 µM | 1.05 |
| COc1ccc(N2CCN(C(=O)c3ccccc3Nc3ccnc(C(F)(F)F)c3)CC2)cc1 | > 100 | > 100 | > 100 | > 100 | > 100 | > 100 | > 100 | > 100 µM | > 100 | > 100 | 50.7 µM | > 100 µM | 18.7 | 96.5 | 40.5 µM | 76.9 | 23.8 µM | > 100 µM | > 100 µM | 12.2 |
| O=[N+]([O-])c1cccc([N+](=O)[O-])c1S(=O)(=O)c1ccccc1 | 46.7 | 9.18 | 32.3 | 31.8 | 32 | 31.4 | – | 5.9 µM | 36.8 | 36.1 | – | – | – | – | – | – | – | – | – | – |
| O=NC1c2cccc3cccc(c23)C1N=O (stereo not drawn) | 17.5 | 9.11 | 25.4 | 24.8 | 17 | 7.21 | – | 12.7 µM | – | 35.8 | – | – | – | – | – | – | – | – | – | – |
| CN(C)C[C@H]1CC[C@@H](CN(C)C)C1=O | 37.8 | 16.3 | 15.7 | > 50 | 27.5 | – | > 37.5 | 5.55 µM | 32.3 | > 50 | – | – | – | – | – | – | – | – | – | – |
